Test results reported in PMC3501516, “Anti-Diabetic Efficacy and Impact on Amino Acid Metabolism of GRA1, a Novel Small-Molecule Glucagon Receptor Antagonist” (PLoS ONE, 2012).
Like-named read-outs stand apart in the source and are kept apart here. Marks after values point to notes of the source that are not given here.

Legend:
[1] = target: T1, human GCGR (hGCGR) (Homo sapiens, UniProt P47871); test: Inhibition of 125I-glucagon binding to hGCGR in membranes of CHO cells expressing hGCGR; details: CHO cell membranes
T1 construct: expressed in transfected cells
T1 sequence (P47871 26-477): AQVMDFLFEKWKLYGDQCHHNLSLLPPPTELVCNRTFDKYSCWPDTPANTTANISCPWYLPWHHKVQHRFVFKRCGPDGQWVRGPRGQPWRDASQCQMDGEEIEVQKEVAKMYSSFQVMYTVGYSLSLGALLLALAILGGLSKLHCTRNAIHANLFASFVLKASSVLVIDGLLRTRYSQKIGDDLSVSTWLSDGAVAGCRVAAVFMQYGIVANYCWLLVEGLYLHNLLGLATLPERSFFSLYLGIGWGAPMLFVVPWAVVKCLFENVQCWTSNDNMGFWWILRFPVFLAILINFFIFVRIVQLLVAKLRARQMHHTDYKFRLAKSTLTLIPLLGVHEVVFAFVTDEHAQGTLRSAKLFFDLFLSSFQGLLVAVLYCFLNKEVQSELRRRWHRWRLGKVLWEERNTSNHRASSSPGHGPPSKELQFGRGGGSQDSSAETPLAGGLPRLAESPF
Description: Transfected Chinese hamster ovary (CHO) cell lines were acquired and maintained as previously described, [20]. These included separate cell lines stably expressing human GCGR (hGCGR), mouse GCGR, rhesus GGCR, glucose-dependent insulinotropic peptide receptor (GIPR), GLP-1 receptor (GLP-1R), pituitary adenylate cyclase-activating polypeptide receptor type 1 (PAC1R), and vasoactive adenylate cyclase-activating polypeptide receptor type 2 (VPAC2R). Inhibition of glucagon binding to hGCGR was assayed in cell membranes prepared from the line of CHO cells that expressed the hGCGR. Functional antagonism was assayed by measuring the production of cAMP in intact CHO cells stimulated by agonists specific for their cognate receptors (i.e., glucagon for GCGR-expressing cell lines, GIP for the GIPR-expressing line, etc.). Primary human hepatocytes were obtained from In Vitro Technologies (Baltimore, MD) and glucagon-stimulated glycogenolysis was studied in these as previously described.

[2] = tested on: DIO hGCGR mice; test: Chronic GRA1 treatment of diet-induced obese (DIO) hGCGR mice; assay type: in vivo, hGCGR mouse; details: for Free fatty acid, terminal plasma / Insulin, terminal plasma / LDL cholesterol, terminal plasma / Glucagon, terminal plasma / Triglyceride, terminal plasma / Non-LDL cholesterol, terminal plasma / Cholesterol, terminal plasma: 10 weeks; for Free fatty acid, terminal plasma: control 1.04±0.13; for Insulin, terminal plasma: control 8.5±2.0; for LDL cholesterol, terminal plasma: control 19.6±2.3; for Glucagon, terminal plasma: control 164±24; for Triglyceride, terminal plasma: control 181±11; for Non-LDL cholesterol, terminal plasma: control 205±12; for Cholesterol, terminal plasma: control 233±15
Description: The present study made use of a line of hGCGR-expressing mouse (“hGCGR mouse”) generated previously by substituting the hGCGR gene for the mouse GCGR gene. These mice were crossed with C57BL/6J.ob/+ mice (Jackson Laboratories, Bar Harbor, ME) to obtain an hGCGR.ob/+ mouse line. The hGCGR.ob/+ mice were then intercrossed to obtain hGCGR.ob/ob, hGCGR.ob/+, and hGCGR.+/+ mice (with the hGCGR.ob/+ and hGCGR.+/+ mice serving as littermate controls). […] obese (DIO) hGCGR mice were generated by maintaining hGCGR mice on a high-fat diet (HFD) in which 45–60% of calories were in fat (Product S3282, Bio-Serv, Frenchtown, NJ). High-fat-diet-streptozotocin-treated (HFD/STZ) diabetic mice were generated in-house as previously described.
Animals were dosed chronically with GRA1 and the DPP-4 inhibitor des-fluoro-sitagliptin by administering these agents as food admixtures. The admixtures were prepared in-house and by Research Diets (New Brunswick, NJ), with drug concentrations adjusted weekly on the basis of average food consumption and animal weight to provide targeted daily doses. In the GRA1 experiments, the targeted doses were 3, 6, 10, and 30 mg/kg•day. In des-fluoro-sitagliptin experiments, the targeted dose was 200 mg/kg•day, a relatively high amount necessary because this compound has a half-life in rodents of 1–2 h.
Plasma glucagon and active GLP-1 were measured using commercial ELISA kits (Linco Research Immunoassay, St. Charles, MO). […] Plasma insulin was determined by ELISA with a commercial kit (ALPCO Diagnostics, Windham, NH). Plasma concentrations of glycated hemoglobin A1c (HbA1c) were measured using a Micromat II test kit from Bio-Rad Laboratories (Hercules, CA). Total cholesterol, low-density lipoprotein cholesterol (LDL-c) and non-LDL-c, and aspartate aminotransferase were measured using a Roche P Modular Clinical Chemistry analyzer (Indianapolis, IN).
Figure 4 GRA1 lowers blood glucose in the DIO hGCGR and hGCGR.ob/ob mouse. Mean (±SEM) blood glucose concentrations in (A) non-fasted and (B) fasted DIO hGCGR mice treated with approximately 3 and 10 mg/kg·day GRA1 provided as a food admixture. (Additional data from this study are in Table 2). (C) Mean (±SEM) blood glucose concentrations in the hGCGR.ob/ob mouse following single oral doses of 1, 3, or 10 mg/kg GRA1 or vehicle. (D) Mean (±SEM) non-fasted blood glucose concentrations in hGCGR.ob/ob mice treated for 2–8 weeks with control diet or 10 mg/kg·day GRA1 administered as diet admixture. *p<0.05, **p<0.01, and ***p<0.001 in timepoint-matched comparisons with controls; n = 8 in each group.

[3] = hGCGR.ob/ob mice, 10 mg/kg•day food admixture, 5 weeks

SMILES: COc1ccc2cc(-c3cc(-c4cc(C(F)(F)F)ccc4F)nn3[C@@H](C)c3ccc(C(=O)NCCC(=O)O)cc3)ccc2c1 [GRA1, N-[4-((1S)-1-{3-(2-fluoro-5-trifluoromethylphenyl)-5-[6-methoxynaphth-2-yl]-1H-pyrazol-1-yl}ethyl)benzoyl]-β-alanine]
- IC50 [1]: 4 nM
- Effect on blood glucose ([2]; 1–10 weeks, 3 or 10 mg/kg•day): significant, sustained reductions in blood glucose
- Food intake and body weight ([2]; 3 or 10 mg/kg•day (data not shown)): not affected
- Increase of plasma glucagon ([2]; 3 or 10 mg/kg•day (either dose)): approximately 2 fold
- Free fatty acid, terminal plasma ([2]; 3 mg/kg•day): 0.84 ± 0.08 mM
- Insulin, terminal plasma ([2]; 3 mg/kg•day): 4.2 ± 1.1 ng/mL
- LDL cholesterol, terminal plasma ([2]; 3 mg/kg•day): 25.4±2.9 mg/dLl
- Glucagon, terminal plasma ([2]; 3 mg/kg•day): 374±53* pg/mL
- Triglyceride, terminal plasma ([2]; 3 mg/kg•day): 141±13* mg/dL
- Non-LDL cholesterol, terminal plasma ([2]; 3 mg/kg•day): 216 ± 16 mg/dL
- Cholesterol, terminal plasma ([2]; 3 mg/kg•day): 255 ± 17 mg/dL
- Free fatty acid, terminal plasma ([2]; 10 mg/kg•day): 0.69±0.04* mM
- Insulin, terminal plasma ([2]; 10 mg/kg•day): 5.7 ± 1.4 ng/mL
- LDL cholesterol, terminal plasma ([2]; 10 mg/kg•day): 19.4±2.4 mg/dLl
- Glucagon, terminal plasma ([2]; 10 mg/kg•day): 343 ± 85 pg/mL
- Triglyceride, terminal plasma ([2]; 10 mg/kg•day): 122±10** mg/dL
- Non-LDL cholesterol, terminal plasma ([2]; 10 mg/kg•day): 186 ± 7 mg/dL
- Cholesterol, terminal plasma ([2]; 10 mg/kg•day): 213 ± 8 mg/dL
- Islet morphology and ratio of insulin-positive to glucagon-positive cells (pancreas immunohistochemistry) ([2]; treated vs control (data not shown)): no significant differences
- Mean GRA1 plasma concentration ([3]; 4 PM): 0.77 ± 0.2 µM
- Mean GRA1 plasma concentration ([3]; 9AM): 1.7 ± 0.5 µM
